Laboratory results published in PubChem BioAssay AID2754 (The Scripps Research Institute Molecular Screening Center, 2010).
Activity calls are given as the source filed them. How the calls were made is not given here.

Biological target: VIM-2 metallo-beta-lactamase (Pseudomonas aeruginosa) (UniProt Q932Y6)
Experiment: VIM-2 metallo-beta-lactamase inhibitor potency, dose response, biochemical, epi-absorbance, common IMP-1/VIM-2 hits (AID 2754)
Conditions: purified VIM-2 enzyme, absorbance substrate hydrolysis

Row | Structure (SMILES) | IC50
1 | CCCCN(C)C1=CC2=CC(=C(C#N)C#N)CCC2CC1 (stereo unspecified) | 4.07 µM
2 | O=P(O)(O)c1cc(-c2ccccc2)oc1-c1ccccc1 | inactive
3 | COc1cc(OC)c(-c2c3cc(O)c(=O)cc-3oc3cc(O)c(O)cc23)cc1OC | 5.11 µM
4 | CCc1cc(=O)oc2cc(C)c(CN3CCCC3)c(O)c12 | 6.96 µM
5 | CCN(CC)c1ccc2cc(-c3nc4ccccc4[nH]3)c(=O)oc2c1 | 2.73 µM
6 | CN1C(=O)c2cccc3c(N)ccc(c23)C1=O | 7.17 µM
7 | Nc1ccc2c3c(cccc13)C(=O)N(c1ccccc1)C2=O | inactive
8 | CN(/N=C/c1ccc(-c2ccc([N+](=O)[O-])cc2)o1)c1ccccc1 | > 59.6 µM (inactive)
9 | CCN1CCN(C2=CC3=CC(=C(C#N)C#N)CCC3CC2)CC1 (stereo unspecified) | 3.7 µM
10 | Cc1ccc(Cn2c(C(C)Nc3nc(-c4ccc(C)cc4)cs3)nc3cc(Cl)c(Cl)cc32)cc1 (stereo unspecified) | inactive
11 | O=C1c2cccc3c(O)ccc(c23)C(=O)N1Cc1ccco1 | inactive
12 | Nc1ccc(-c2c3ccc(=O)cc-3oc3cc(O)ccc23)cc1C(=O)O | 4.47 µM
13 | CCCCn1c(=O)[nH]c2nc3cc(N)ccc3nc2c1=O | inactive
14 | CCn1c(=S)sc2c(=O)n(CC(=O)Nc3ccccc3C(F)(F)F)c(C)nc21 | > 59.6 µM (inactive)
15 | COC(=O)c1sccc1NC(=O)c1ccc(C#N)cc1 | > 59.6 µM (inactive)
16 | CCOc1ccc(/C=C2\CCCc3c2nc2ccccc2c3C(=O)O)cc1OC | inactive
17 | COc1cc(/C=C2/SC(=S)N(Cc3ccccc3)C2=O)cc(OC)c1O | > 59.6 µM (inactive)
18 | O=[N+]([O-])c1ccc(N2CCCCCC2)c2nonc12 | inactive
19 | CCCCCCn1c(=O)[nH]c2nc3cc(N)ccc3nc2c1=O | inactive
20 | CCOC(=O)C1CCCN(c2ccc([N+](=O)[O-])c3nonc23)C1 (stereo unspecified) | inactive
21 | CNc1ccc2c3c(cccc13)C(=O)N(C)C2=O | 3.06 µM
22 | O=C1CCN2C=Nc3cccc4ccc1c2c34 | 9.22 µM
23 | Cc1nn(-c2ccccc2)c(Cl)c1/C=C(\CC(=O)O)c1nc2ccccc2s1 | 9.26 µM
24 | CCOc1ccc(-c2cc(C(=O)NCCCn3ccnc3)c3cc(Br)ccc3n2)cc1 | > 59.6 µM (inactive)

Row | Structure (SMILES) | IC50
25 | Cc1ccc2[nH]cc(/C=C/c3cc[n+](C)cc3)c2c1 | inactive
26 | CN1CCN(C2=CC3=CC(=C(C#N)C#N)CCC3CC2)CC1 (stereo unspecified) | 3 µM
27 | O=C1c2ccccc2-c2onc3ccc(NCCCn4ccnc4)c1c23 | 1.72 µM
28 | Cn1cc(/C=C(\C(=O)O)C(C(=O)O)=C2CCCCC2)c2ccccc21 | inactive
29 | CCOC(=O)c1c2c3c(cccc3n(C)c1=O)C(=O)c1ccccc1-2 | inactive
30 | N#CC(C#N)=C1C=C2C=C(N3CCCCCC3)CCC2CC1 (stereo unspecified) | 2.51 µM
31 | CCN(CC)C1=CC2=CC(=C(C#N)C#N)CCC2CC1 (stereo unspecified) | 2.4 µM
32 | CCCN1C(=O)c2cccc3c(N4CCCCC4)ccc(c23)C1=O | > 59.6 µM (inactive)
33 | COc1ccc(/C=C2\CCCc3c2nc2ccccc2c3C(=O)O)cc1OC | inactive
34 | O=C(Nc1ccc2oc(-c3ccccc3F)nc2c1)c1ccc([N+](=O)[O-])o1 | > 59.6 µM (inactive)
35 | CN1C(=O)/C(=C\c2ccc(N(C)C)cc2)OC1=S | > 59.6 µM (inactive)
36 | O=c1ccc2c(-c3ccccc3)c3ccc(O)cc3oc-2c1 | 0.374 µM
37 | COCCCn1c(=NC(=O)c2ccccc2)c(C#N)cc2c(=O)n3cccc(C)c3nc21 | > 59.6 µM (inactive)
38 | CCOc1cc2c(cc1/C=C/c1noc(C)c1[N+](=O)[O-])OC(C)C2 (stereo unspecified) | > 59.6 µM (inactive)
39 | COc1ccc(-c2occ(C(=O)O)c2C(=O)O)cc1 | inactive
40 | COc1ccccc1-c1csc(-n2ncc(C#N)c2N)n1 | > 59.6 µM (inactive)
41 | COc1ccc(-c2cc(=O)oc3c(C)c(OCC(=O)NCCCn4ccnc4)ccc23)cc1 | inactive
42 | CCCCC(Sc1nc(N)c(NC(=O)c2ccco2)c(=O)[nH]1)C(=O)O (stereo unspecified) | > 59.6 µM (inactive)
43 | CCN(CC)c1ccc2cc(C=O)c(=O)oc2c1 | inactive
44 | O=C(CCN1C(=O)/C(=C/c2ccc(Cl)cc2)SC1=S)NCCCn1ccnc1 | > 59.6 µM (inactive)
45 | Cc1cccc(N2C(=O)c3cccc4c(N)ccc(c34)C2=O)c1 | inactive
46 | O=C1c2cccc3c(O)ccc(c23)C(=O)N1c1ccc(Cl)cc1 | inactive
47 | O/C=c1\ccc2cccc3nc(C(F)(F)F)nc1c23 | 8.76 µM
48 | N#CC(C#N)=C1C=C2C=C(N3CCOCC3)CCC2CC1 (stereo unspecified) | 2.74 µM

Row | Structure (SMILES) | IC50
49 | CCN(CC)c1ccc2c(-c3ccc(S(=O)(=O)O)cc3S(=O)(=O)[O-])c3ccc(=[N+](CC)CC)cc-3oc2c1 | > 59.6 µM (inactive)
50 | O=C1/C(=C\c2cc(Cl)c(O)c(Cl)c2)SC(=S)N1Cc1ccccc1 | inactive
51 | CC(C)(C)c1ccc(-c2c(C(=O)O)c(C(=O)O)c3n2CSC3)cc1 | inactive
52 | CCN1/C(=C/C=C/c2oc3ccc4ccccc4c3[n+]2CC)Oc2ccc3ccccc3c21 | > 59.6 µM (inactive)
53 | Cc1nn(C)c(C)c1N1C(=O)c2cccc3c(N)ccc(c23)C1=O | 8.99 µM
54 | COCCCNc1c2c3c(cccc3[nH]c1=O)C(=O)c1ccccc1-2 | 1.84 µM
55 | COc1ccccc1N1N=C(c2ccc([N+](=O)[O-])cc2)CC1c1ccccc1 (stereo unspecified) | > 59.6 µM (inactive)
56 | O=c1cc(C(F)(F)F)c2cc3c4c(c2o1)CCCN4CCC3 | inactive
57 | Cc1n[nH]c(C)c1N1C(=O)c2cccc3c(N4CCCCCC4)ccc(c23)C1=O | inactive
58 | CCN(CC)c1ccc(/C=C/C(=O)c2ccc(Br)cc2)cc1 | 8.45 µM
59 | CN(C)/C=C1\C=C2C(=O)c3ccccc3N2C1=O | 0.894 µM
60 | CC(C)C(CCN1C(=O)c2ccccc2C1=O)c1ccco1 (stereo unspecified) | inactive
61 | CC(=O)Nc1ccc(N2C(=O)c3cccc4c(O)ccc(c34)C2=O)cc1 | inactive
62 | N#CC(C#N)=C1C=C2C=C(N3CCCCC3)CCC2CC1 (stereo unspecified) | 2.33 µM
63 | O=C(Nc1ccc(C(F)(F)F)cc1)c1ccc(NC(=O)C2CCCO2)cc1 (stereo unspecified) | > 59.6 µM (inactive)
64 | COc1ccc2c(Cl)c(C(=O)NCCCn3ccnc3)sc2c1Cl | > 59.6 µM (inactive)
65 | COc1ccc(/C=C2/SC(c3ccc(C)cc3)=NC2=O)cc1OC | > 59.6 µM (inactive)
66 | CC(C)n1cc(/C=C/c2cc[n+](C)cc2)c2ccccc21 | inactive
67 | N=C1/C(=C\c2coc3ccccc3c2=O)C(=O)N=C2SC=CN12 | inactive
68 | CCN(CC)c1ccc2cc(C(=O)NCc3ccc(F)cc3)c(=N)oc2c1 | > 59.6 µM (inactive)
69 | CCC(=C/c1sc2ccc3ccccc3c2[n+]1C)/C=C1\Sc2ccc3ccccc3c2N1C | > 59.6 µM (inactive)
70 | CC(=O)Oc1ccc2c(c1)Oc1cc(OC(C)=O)ccc1C21OC(=O)c2ccccc21 | inactive
71 | Nc1cccc(N2C(=O)c3cccc4c(N)ccc(c34)C2=O)c1 | inactive
